Experimental findings from PMC4992173, “Divergent synthesis and identification of the cellular targets of deoxyelephantopins” (Nature Communications, 2016) are described below.

The assay has as its system 11 identified targets in MCF7 cells. The experiment in a line: Targeted in situ competitive profiling in live MCF7 cells, all 11 targets. Type of assay: cell-based, human. Particulars: intact MCF7 cells, 20 µM, 4 h, then 10 µM 24c. The text has this:
In our efforts to determine the direct molecular targets of deoxyelephantopin we first performed a gel-based competitive in situ proteomic profiling assay[41] […] While the greater conformational flexibility of probe 24c could potentially lead to more promiscuous target engagement relatively to deoxyelephantopin, it was favoured based on the fact that an alkyne moiety appended to the rigid scaffold of deoxyelephantopin may hinder some of its interactions. MCF7 cells were pretreated with various concentrations of deoxyelephantopin for 4 h, harvested, lysed and the lysates were treated with the fluorogenic probe 24c-Cy3 (10 μM; Supplementary Fig. 10). […] Furthermore, cells were pretreated with 20 μM concentration of deoxyelephantopin or 24c and the proteomic profiles were compared (Fig. 6b, Supplementary Fig. 11). Multiple bands were detected that were equally competed by both DEP and 24c, thus again confirming that 24c can be used as an acceptable clickable analogue of deoxyelephantopin in pulldown assays. Having established the optimal labelling conditions by SDS–PAGE, we next carried out a mass spectrometry-based competitive profiling assay[42] coupled with the method of stable isotope labelling of amino acids in culture (SILAC)[43]. […]
Figure 6 Proteome-wide identification of deoxyelephantopin targets. […] Quantification was performed using label-free quantification (LFQ) method (n=4). […]

For the compound `C=C(C)C(=O)O[C@H]1CC2=C[C@@H](C/C(C)=C/[C@H]3OC(=O)C(=C)[C@H]13)OC2=O` [deoxyelephantopin], the “competition of all 11 targets in situ” value was above 70%.
